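GI50 marks 50% less growth. Definition used: TGI = concentration required for complete inhibition of growth.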
Tests used:
Experiment in all cases: growth of human tumour cells (NCI), 384-well format
[1] = test system: RPMI-8226 leukemia
[2] = test system: UACC-62 melanoma
[3] = test system: A549 NSCLC
[4] = test system: CAKI-1 renal
[5] = test system: SK-MEL-28 melanoma
[6] = test system: RXF 393 renal
[7] = test system: CCRF-CEM leukemia
[8] = test system: HCC-2998 colon
[9] = test system: A498 renal
[10] = test system: UACC-257 melanoma
[11] = test system: NCI-H522 lung
[12] = test system: MALME-3M melanoma
[13] = test system: NCI-H460 NSCLC
[14] = test system: NCI-H23 lung
[15] = test system: MOLT-4 leukemia
[16] = test system: HCT-15 colon
[17] = test system: MDA-MB-468 breast
[18] = test system: OVCAR-3 ovarian
[19] = test system: SR leukemia
[20] = test system: BT-549 breast
[21] = test system: DU-145 prostate
[22] = test system: OVCAR-4 ovarian
[23] = test system: M14 melanoma
[24] = test system: COLO 205 colon
[25] = test system: HL-60(TB) leukemia
[26] = test system: SNB-75 CNS
[27] = test system: K-562 leukemia
[28] = test system: SF-295 CNS
[29] = test system: KM12 colon
[30] = test system: MDA-MB-435 melanoma
[31] = test system: MCF7 breast
[32] = test system: OVCAR-8 ovarian
[33] = test system: PC-3 prostate
[34] = test system: SF-539 CNS
[35] = test system: HCT-116 colon
[36] = test system: HT29 colon
[37] = test system: U251 glioblastoma
[38] = test system: LOX IMVI melanoma
[39] = test system: SW-620 colon
[40] = test system: SK-MEL-2 melanoma
[41] = test system: ACHN renal
[42] = test system: SNB-19 CNS
[43] = test system: HS 578T breast
[44] = test system: 786-0 renal
[45] = test system: TK-10 renal
[46] = test system: NCI-H322M lung
[47] = test system: SF-268 CNS
[48] = test system: IGROV1 ovarian
[49] = test system: EKVX NSCLC
[50] = test system: NCI-H226 lung
[51] = test system: NCI/ADR-RES ovarian
[52] = test system: SN12C renal
[53] = test system: SK-OV-3 ovarian
[54] = test system: T-47D breast
[55] = test system: OVCAR-5 ovarian
[56] = test system: SK-MEL-5 melanoma
[57] = test system: MDA-MB-231 breast
[58] = test system: HOP-62 NSCLC

With Cc1[nH]ncc1-c1cc2nc(C3CC4CCN3CC4)[nH]c(=O)c2s1 (stereo not given) the GI50 [1] was 10.3 µM, the TGI [1] was 22 µM and the GI50 [2] was 2.88 µM. The TGI [2] was 15.5 µM, the GI50 [3] was 2.86 µM and the TGI [3] was > 100 µM. For the same molecule, the GI50 [4] was 1.56 µM, the TGI [4] was > 100 µM and the GI50 [5] was 6.67 µM. The TGI [5] was 23.2 µM, the GI50 [6] was 2.27 µM and the TGI [6] was 7.19 µM. The GI50 [7] was 0.138 µM, the TGI [7] was 0.905 µM and the GI50 [8] was 3.48 µM. The TGI [8] was 24.2 µM, the GI50 [9] was 0.0828 µM and the TGI [9] was 70.7 µM. The GI50 [10] was 15.2 µM, the TGI [10] was 43.8 µM and the GI50 [11] was 0.381 µM. It also gave a TGI [11] of 7.5 µM, a GI50 [12] of 11.1 µM and a TGI [12] of 29.7 µM. The GI50 [13] was 1.19 µM, the TGI [13] was 5.55 µM and the GI50 [14] was 1.36 µM. For the same molecule, the TGI [14] was 6.79 µM, the GI50 [15] was 1.14 µM and the TGI [15] was 11.3 µM. The GI50 [16] was 2.74 µM, the TGI [16] was > 100 µM and the GI50 [17] was 1.17 µM. The TGI [17] was 20.9 µM, the GI50 [18] was 2.93 µM and the TGI [18] was 18.3 µM. The GI50 [19] was 0.178 µM, the TGI [19] was 0.366 µM and the GI50 [20] was 1.85 µM. The TGI [20] was 6.54 µM, the GI50 [21] was 0.876 µM and the TGI [21] was > 100 µM. It also gave a GI50 [22] of 21.4 µM, a TGI [22] of 74.9 µM and a GI50 [23] of 5.7 µM. The TGI [23] was 19.4 µM, the GI50 [24] was 0.0396 µM and the TGI [24] was 0.198 µM. The GI50 [25] was 0.562 µM, the TGI [25] was 1.8 µM and the GI50 [26] was 2.06 µM. The TGI [26] was 7.46 µM, the GI50 [27] was 5.24 µM and the TGI [27] was > 100 µM. For the same molecule, the GI50 [28] was 1.19 µM, the TGI [28] was 49.4 µM and the GI50 [29] was 3.22 µM. It also gave a TGI [29] of 25.7 µM, a GI50 [30] of 9.26 µM and a TGI [30] of 28 µM. For the same molecule, the GI50 [31] was 3.55 µM, the TGI [31] was > 100 µM and the GI50 [32] was 8.87 µM. The TGI [32] was > 100 µM, the GI50 [33] was 8.96 µM and the TGI [33] was > 100 µM. For the same molecule, the GI50 [34] was 1.31 µM, the TGI [34] was 7.72 µM and the GI50 [35] was 2.16 µM. The TGI [35] was > 100 µM, the GI50 [36] was 14.4 µM and the TGI [36] was > 100 µM. It also gave a GI50 [37] of 1.38 µM, a TGI [37] of 74.2 µM and a GI50 [38] of 0.888 µM. For the same molecule, the TGI [38] was 14.6 µM, the GI50 [39] was 0.333 µM and the GI50 [40] was 6.55 µM. For the same molecule, the TGI [40] was 18.4 µM, the GI50 [41] was 1.96 µM and the TGI [41] was > 100 µM. The GI50 [42] was 9.66 µM, the TGI [42] was > 100 µM and the GI50 [43] was 1.48 µM. The TGI [43] was 3.32 µM, the GI50 [44] was 2.75 µM and the TGI [44] was 55.1 µM. For the same molecule, the GI50 [45] was 9.31 µM, the TGI [45] was > 79.3 µM and the GI50 [46] was 6.94 µM. The TGI [46] was 34.3 µM, the GI50 [47] was 1.42 µM and the TGI [47] was 4.23 µM. The GI50 [48] was 3.76 µM, the TGI [48] was > 51.1 µM and the GI50 [49] was 5.93 µM. It also gave a TGI [49] of 42.9 µM, a GI50 [50] of 2.53 µM and a TGI [50] of 15.9 µM. It also gave a GI50 [51] of 16.2 µM, a TGI [51] of 65.8 µM and a GI50 [52] of 1.78 µM. The TGI [52] was 17.9 µM, the GI50 [53] was 17.8 µM and the TGI [53] was > 100 µM. The GI50 [54] was 24.9 µM, the TGI [54] was > 100 µM and the GI50 [55] was 4.24 µM. The TGI [55] was > 100 µM, the GI50 [56] was 2.18 µM and the TGI [56] was 7.13 µM. For the same molecule, the GI50 [57] was 7.14 µM, the TGI [57] was > 100 µM and the GI50 [58] was 2.31 µM. For the same molecule, the TGI [58] was 16.1 µM.

Reference: PubChem BioAssay (NCI)
